Reference: US20090227619A1, “Harmine derivatives, intermediates used in their preparations, preparation processes and use therefo” (priority 2003, published 2009)
Where two headings read alike, the source gives them in different places.

Assays:
S180 sarcoma = details: S180 sarcoma; for Body weight of the animals, beginning, First time / Body weight of the animals, end, First time / Inhibition rate, First time / Weight of the tumor X ± SD, First time / Body weight of the animals, beginning, Second time / Body weight of the animals, end, Second time / Inhibition rate, Second time: ip × 10qd; for Inhibition rate (%) S180 sarcomata: comparison table 43, in vivo
Description: There was one group of 8 to 10 mice C57BL/6 and Kunming mice for the anti-tumor tests and two groups of mice for negative control.
(3) Sources of tumors: Lewis lung cancer cells and S180 sarcoma in mice, which were sub-cultured and maintained by Pharmacological Center of Shanghai Pharmaceutical Industrial Research Institute.
All samples were weighed and added a small amount of Tween-80 to facilitate dissolution during the experiment, and then 0.5% CMC-Na solution was gradually added to achieve the desired concentration. The volume for experiment was 0.5 ml/20 g mouse.
The medicaments were intraperitoneally administered once a day continuously for 10 days.
For the negative control group, a vehicle of the same volume was intraperitoneally administered once a day continuously for 10 days. For the positive control group, CTX was administered in the dosage of 30 mg/kg once a day continuously for 7 days.
In vivo anti-tumor subcutaneous vaccination in the axilla was employed. Wildly grown tumor source was taken under sterile conditions to form a cell suspension of about 1×10^7 ml by homogenization method. For a corresponding mouse host, the suspension was injected in the axilla in an amount of 0.2 ml/mouse. The next day, the medicaments were administered according to the design of the tests. About three weeks later, all the groups of animals were executed. The tumors were taken from the animals and weighed. The inhibition rate of tumors was calculated according to the following formula:
T: average tumor weight of treated group; C: average tumor weight of negative control group.

Hela = test: In vitro cytotoxicity, IC50 by MTT method, Hela; type: cell-based; details: Homo sapiens; Hela cell strain; read-out: IC50 Hela
Method in brief: (§1)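 Cells in RPMI1640 with 10% FBS at 37° C, 5% CO2 were seeded at 10^5/ml and exposed to a compound concentration gradient for 48 h, at least three replicates, solvent controls.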

HepG2 = test: In vitro cytotoxicity, IC50 by MTT method, HepG2; type: cell-based, human; details: Homo sapiens; HepG2 cell strain; read-out: IC50 HepG2
Method in brief: as §1

BGC-823 = test: In vitro cytotoxicity, IC50 by MTT method, BGC-823; type: cell-based; details: Homo sapiens, BGC-823; BGC823 cell strain; read-out: IC50 BGC823
Method in brief: as §1

Bel-7402 = test: In vitro cytotoxicity, IC50 by MTT method, Bel-7402; type: cell-based; details: Homo sapiens, Bel-7402; Bel7402 cell strain; read-out: IC50 Bel7402
Method in brief: as §1

NIH3T3 = test: In vitro cytotoxicity, IC50 by MTT method, NIH3T3; type: cell-based; details: Mus musculus; NIH3T3 cell strain; read-out: IC50 NIH3T3
Method in brief: as §1

PLA-801 = test: In vitro cytotoxicity, IC50 by MTT method, PLA-801; type: cell-based; details: PLA-801 cell strain; read-out: IC50 PLA-801
Method in brief: as §1

Lewis lung cancer = details: Lewis lung cancer; for Body weight of the animals, end, First time / Body weight of the animals, end, Second time: ip × 10qd; for Inhibition rate (%) Lewis cancer: comparison table 43, in vivo;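 as to all read-outs here: mice implanted subcutaneously in the axilla with Lewis lung tumor cells, treated starting the following day, killed roughly three weeks after implantation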
Kunming mice = details: for Death rate: single i.p.
Method: (§2) Five grades of dosages for each sample according to the results of the preliminary test, each dosage being 0.8 larger than the previous one
(§3) During the experiment, each sample was added a small amount of Tween-80 to facilitate dissolution after the sample was weighed, and then 0.5% CMC-Na solution was gradually added to achieve the desired concentration. The experimental volume was 0.5 ml/20 g mouse.
(§4) Single injection via intraperitoneal (i.p.) to different groups mice.
(§5) Kunming mice were divided into different groups randomly according to their sex. The medicament was intraperitoneally administered to each group of mice according to the dosage setting. After the administration of the medicaments, mice were observed continuously for the first 2 h for any gross behavioral changes and deaths. Dead animals were dissected and examined for any possible organ damage. […] Conditions of animals died within two week were recorded. After two weeks, all survived animals were sacrificed and checked macroscopically for possible damage to the heart, liver, kidneys and so on. Viscera that had substantive pathological changes were pathologically examined.

CT-DNA = test: DNA thermal denaturation, determination of ΔTm; type: binding; details: 20 uM compound, Tm of CT-DNA alone 61° C.
Method: Experiments were carried out in PE buffer (1 mM Na2HPO4, 0.1 mM EDTA, pH 7.6) in a thermostatically controlled cell hold, and the quartz cuvette (1 cm path length) was heated by circulating water at a heating rate of 0.5° C./min from 25 to 95° C. Amsacrine and Doxorubicin Hydrochloride were used as standards. In all cases, the concentration of CT-DNA was 15 ug/ml. The ‘melting’ temperature Tm was taken as the mid-point of the hyperchromic transition.
ΔTm=Tm^drug-DNA complex−Tm^DNA alone
The ΔTm of each compound was calculated, Experiments were repeated three times, and an average value was calculated.

Lovo = test: In vitro cytotoxicity, IC50 by MTT method, Lovo; type: cell-based; details: Homo sapiens; Lovo cell strain; read-out: IC50 Lovo
Method in brief: as §1

in vivo = details: both, Kunming, mouse, ip
Method: as §2, §3, §4, §5

[1] = 50% male 50% female mice, 240 mg/kg
[2] = 50% male 50% female mice, 300 mg/kg
[3] = CT-DNA 15 ug/ml, PE buffer pH 7.6
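For Death rate in this document: acute toxicity in Kunming mice grouped by sex, one intraperitoneal dose at five graded levels in Tween-80 plus 0.5% CMC-Na, deaths monitored over two weeks.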
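For LD50 in this document: acute toxicity in Kunming mice grouped by sex, one intraperitoneal dose at five graded levels in Tween-80 plus 0.5% CMC-Na, deaths monitored over two weeks.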
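For MTD in this document: acute toxicity in Kunming mice grouped by sex, one intraperitoneal dose at five graded levels in Tween-80 plus 0.5% CMC-Na, deaths monitored over two weeks.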
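For Sex in this document: acute toxicity in Kunming mice grouped by sex, one intraperitoneal dose at five graded levels in Tween-80 plus 0.5% CMC-Na, deaths monitored over two weeks.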

CCOC(=O)c1cc2c3ccccc3n(Cc3ccccc3)c2cn1 [Compound 33, ethyl 9-benzyl-β-carboline-3-carboxylate]
Body weight of the animals, beginning, First time (S180 sarcoma; Dosage 50 (mg/ml)): 19.4 g | Body weight of the animals, end, First time (S180 sarcoma; Dosage 50 (mg/ml)): 24.4 g | Inhibition rate, First time (S180 sarcoma; Dosage 50 (mg/ml)): 33.33% | Weight of the tumor X ± SD, First time (S180 sarcoma; Dosage 50 (mg/ml)): 1.78 ± 0.17 g | Body weight of the animals, beginning, Second time (S180 sarcoma; Dosage 50 (mg/ml)): 18.7 g | Body weight of the animals, end, Second time (S180 sarcoma; Dosage 50 (mg/ml)): 25.6 g | Inhibition rate, Second time (S180 sarcoma; Dosage 50 (mg/ml)): 32.22% | Weight of the tumor X ± SD, Second time (S180 sarcoma; Dosage 50, ip × 10qd): 1.83 ± 0.19 g | Body weight of the animals, beginning, First time (S180 sarcoma; Dosage 100 (mg/ml)): 19.4 g | Body weight of the animals, end, First time (S180 sarcoma; Dosage 100 (mg/ml)): 24.6 g | Inhibition rate, First time (S180 sarcoma; Dosage 100 (mg/ml)): 42.70% | Weight of the tumor X ± SD, First time (S180 sarcoma; Dosage 100 (mg/ml)): 1.53 ± 0.15 g | Body weight of the animals, beginning, Second time (S180 sarcoma; Dosage 100 (mg/ml)): 18.6 g | Body weight of the animals, end, Second time (S180 sarcoma; Dosage 100 (mg/ml)): 25.1 g | Inhibition rate, Second time (S180 sarcoma; Dosage 100 (mg/ml)): 40.00% | Weight of the tumor X ± SD, Second time (S180 sarcoma; Dosage 100, ip × 10qd): 1.62 ± 0.30 g | Inhibition rate (%) S180 sarcomata (S180 sarcoma): 42.11% | IC50 (Hela): 10 µM | IC50 (HepG2): 80 µM | IC50 (BGC-823): 150 µM | IC50 (Bel-7402): 340 µM | IC50 (NIH3T3): 50 µM | IC50 (PLA-801): 170 µM | Body weight of the animals, end, First time (Lewis lung cancer; Dosage 50 (mg/ml)): 25.4 g | Body weight of the animals, end, Second time (Lewis lung cancer; Dosage 50 (mg/ml)): 24.9 g | Body weight of the animals, beginning, First time (Lewis lung cancer; Dosage 50, ip × 10qd): 20.3 g | Inhibition rate, First time (Lewis lung cancer; Dosage 50, ip × 10qd): 34.16% | Weight of the tumor X ± SD, First time (Lewis lung cancer; Dosage 50, ip × 10qd): 1.60 ± 0.09 g | Body weight of the animals, beginning, Second time (Lewis lung cancer; Dosage 50, ip × 10qd): 18.9 g | Inhibition rate, Second time (Lewis lung cancer; Dosage 50, ip × 10qd): 31.06% | Weight of the tumor X ± SD, Second time (Lewis lung cancer; Dosage 50, ip × 10qd): 2.02 ± 0.18 g | Body weight of the animals, end, First time (Lewis lung cancer; Dosage 100 (mg/ml)): 24.7 g | Body weight of the animals, end, Second time (Lewis lung cancer; Dosage 100 (mg/ml)): 24.5 g | Body weight of the animals, beginning, First time (Lewis lung cancer; Dosage 100, ip × 10qd): 19.9 g | Inhibition rate, First time (Lewis lung cancer; Dosage 100, ip × 10qd): 42.80% | Weight of the tumor X ± SD, First time (Lewis lung cancer; Dosage 100, ip × 10qd): 1.39 ± 0.15 g | Body weight of the animals, beginning, Second time (Lewis lung cancer; Dosage 100, ip × 10qd): 19.0 g | Inhibition rate, Second time (Lewis lung cancer; Dosage 100, ip × 10qd): 43.34% | Weight of the tumor X ± SD, Second time (Lewis lung cancer; Dosage 100, ip × 10qd): 1.66 ± 0.12 g | Inhibition rate (%) Lewis cancer (Lewis lung cancer): 43.3% | Death rate (Kunming mice; [1]): 50 | Death rate (Kunming mice; [2]): 90 | Death rate (Kunming mice; female mice, 240 mg/kg): 60 | Death rate (Kunming mice; female mice, 300 mg/kg): 100 | Death rate (Kunming mice; male mice, 240 mg/kg): 40 | Death rate (Kunming mice; male mice, 300 mg/kg): 80 | LD50 (Kunming mice; mouse, in vivo, ip): 211 to 274 mg/kg | ΔTm (CT-DNA; [3]): −1.2 °C | ΔTm (CT-DNA; CT-DNA thermal denaturation): −1.2 °C | IC50 (Lovo): 120 µM | LD50 at 2 weeks (in vivo): 240 mg/kg

c1ccc(Cn2c3ccccc3c3ccncc32)cc1 [Compound 84, 9-Benzyl-β-carboline]
Body weight of the animals, beginning, First time (S180 sarcoma; Dosage 50 (mg/ml)): 19.6 g | Body weight of the animals, end, First time (S180 sarcoma; Dosage 50 (mg/ml)): 26.8 g | Inhibition rate, First time (S180 sarcoma; Dosage 50 (mg/ml)): 29.47% | Weight of the tumor X ± SD, First time (S180 sarcoma; Dosage 50 (mg/ml)): 2.01 ± 0.24 g | Body weight of the animals, beginning, Second time (S180 sarcoma; Dosage 50 (mg/ml)): 20.4 g | Body weight of the animals, end, Second time (S180 sarcoma; Dosage 50 (mg/ml)): 25.4 g | Inhibition rate, Second time (S180 sarcoma; Dosage 50 (mg/ml)): 31.23% | Weight of the tumor X ± SD, Second time (S180 sarcoma; Dosage 50, ip × 10qd): 1.96 ± 0.16 g | Body weight of the animals, beginning, First time (S180 sarcoma; Dosage 100 (mg/ml)): 19.7 g | Body weight of the animals, end, First time (S180 sarcoma; Dosage 100 (mg/ml)): 26.4 g | Inhibition rate, First time (S180 sarcoma; Dosage 100 (mg/ml)): 37.19% | Weight of the tumor X ± SD, First time (S180 sarcoma; Dosage 100 (mg/ml)): 1.79 ± 0.27 g | Body weight of the animals, beginning, Second time (S180 sarcoma; Dosage 100 (mg/ml)): 20.2 g | Body weight of the animals, end, Second time (S180 sarcoma; Dosage 100 (mg/ml)): 25.0 g | Inhibition rate, Second time (S180 sarcoma; Dosage 100 (mg/ml)): 37.19% | Weight of the tumor X ± SD, Second time (S180 sarcoma; Dosage 100, ip × 10qd): 1.79 ± 0.16 g | Inhibition rate (%) S180 sarcomata (S180 sarcoma): 37.19% | IC50 (Hela): 50 µM | IC50 (HepG2): 110 µM | IC50 (BGC-823): 70 µM | IC50 (Bel-7402): 80 µM | IC50 (NIH3T3): 110 µM | IC50 (PLA-801): 120 µM | Body weight of the animals, end, First time (Lewis lung cancer; Dosage 50 (mg/ml)): 24.1 g | Body weight of the animals, end, Second time (Lewis lung cancer; Dosage 50 (mg/ml)): 25.2 g | Body weight of the animals, beginning, First time (Lewis lung cancer; Dosage 50, ip × 10qd): 19.0 g | Inhibition rate, First time (Lewis lung cancer; Dosage 50, ip × 10qd): 27.09% | Weight of the tumor X ± SD, First time (Lewis lung cancer; Dosage 50, ip × 10qd): 1.83 ± 0.11 g | Body weight of the animals, beginning, Second time (Lewis lung cancer; Dosage 50, ip × 10qd): 19.7 g | Inhibition rate, Second time (Lewis lung cancer; Dosage 50, ip × 10qd): 30.93% | Weight of the tumor X ± SD, Second time (Lewis lung cancer; Dosage 50, ip × 10qd): 1.63 ± 0.16 g | Body weight of the animals, end, First time (Lewis lung cancer; Dosage 100 (mg/ml)): 24.2 g | Body weight of the animals, end, Second time (Lewis lung cancer; Dosage 100 (mg/ml)): 24.7 g | Body weight of the animals, beginning, First time (Lewis lung cancer; Dosage 100, ip × 10qd): 18.5 g | Inhibition rate, First time (Lewis lung cancer; Dosage 100, ip × 10qd): 35.06% | Weight of the tumor X ± SD, First time (Lewis lung cancer; Dosage 100, ip × 10qd): 1.63 ± 0.11 g | Body weight of the animals, beginning, Second time (Lewis lung cancer; Dosage 100, ip × 10qd): 19.4 g | Inhibition rate, Second time (Lewis lung cancer; Dosage 100, ip × 10qd): 37.29% | Weight of the tumor X ± SD, Second time (Lewis lung cancer; Dosage 100, ip × 10qd): 1.48 ± 0.15 g | Inhibition rate (%) Lewis cancer (Lewis lung cancer): 37.29% | Death rate (Kunming mice; [1]): 0 | Death rate (Kunming mice; [2]): 30 | Sex (Kunming mice; both, Kunming, mouse, in vivo, ip, 2 weeks): 240 | Death rate (Kunming mice; female mice, 240 mg/kg): 0 | Death rate (Kunming mice; female mice, 300 mg/kg): 40 | Death rate (Kunming mice; male mice, 240 mg/kg): 0 | Death rate (Kunming mice; male mice, 300 mg/kg): 20 | ΔTm (CT-DNA; [3]): 1.5 °C | ΔTm (CT-DNA; CT-DNA thermal denaturation): 1.5 °C | IC50 (Lovo): 120 µM | MTD at 2 weeks (in vivo): 240 mg/kg
